Measurements as given in ChEMBL document CHEMBL5375992, “Design and Development of IKZF2 and CK1α Dual Degraders” (J Med Chem, 2023).
The source made the active and inactive calls. No cut-off for these calls is given here.

Columns and labels:
[1] = molecular target: T1, Protein cereblon/Zinc finger protein Helios (Homo sapiens) (UniProt Q96SW2+Q9UKS7); experiment: Protac activity at CRBN/IKZF2 (unknown origin) transfected in HEK293T cells at 100 nM incubated for 24 hrs by flow cytometry analysis relative to control; assay type: cell-based
[2] = molecular target: T2, Cereblon/Casein kinase I alpha (Homo sapiens) (UniProt P48729+Q96SW2); experiment: Protac activity at CRBN/CK1alpha (unknown origin) transfected in HEK293T cells at 100 nM incubated for 24 hrs by flow cytometry analysis relative to control; assay type: cell-based
[3] = Metabolic stability in mouse liver microsomes assessed as half life preincubated with NADPH and UDPGA for 5 mins followed by compound addition and measured upto 60 mins by LC-MS/MS analysis; assay type: ADME, Microsome
[4] = Metabolic stability in human liver microsomes assessed as half life preincubated with NADPH and UDPGA for 5 mins followed by compound addition and measured upto 60 mins by LC-MS/MS analysis; assay type: ADME, Microsome
[5] = Metabolic stability in mouse liver microsomes assessed as intrinsic clearance preincubated with NADPH and UDPGA for 5 mins followed by compound addition and measured upto 60 mins by LC-MS/MS analysis; assay type: ADME, Microsome; conditions: read-out: CLH
[6] = Metabolic stability in human liver microsomes assessed as intrinsic clearance preincubated with NADPH and UDPGA for 5 mins followed by compound addition and measured upto 60 mins by LC-MS/MS analysis; assay type: ADME, Microsome; conditions: read-out: CLH
[7] = molecular target: T1, Protein cereblon/Zinc finger protein Helios (Homo sapiens); experiment: Protac activity at CRBN/IKZF2 in human MOLM-13 cells at 25 uM incubated for 24 hrs by Western blotting analysis relative to control; assay type: cell-based
[8] = molecular target: T3, Cereblon/Ikaros (Homo sapiens) (UniProt Q96SW2+Q13422); experiment: Protac activity at CRBN/IKZF1 in human MOLM-13 cells at 25 uM incubated for 24 hrs by Western blotting analysis relative to control; assay type: cell-based
[9] = molecular target: T1, Protein cereblon/Zinc finger protein Helios (Homo sapiens); experiment: Protac activity at CRBN/IKZF2 in human MOLM-13 cells assessed as relative ratio at 25 uM incubated for 24 hrs by Western blotting analysis relative to DMSO; assay type: cell-based
[10] = molecular target: T3, Cereblon/Ikaros (Homo sapiens); experiment: Protac activity at CRBN/IKZF1 in human MOLM-13 cells assessed as relative ratio at 25 uM incubated for 24 hrs by Western blotting analysis relative to DMSO; assay type: cell-based
[11] = system: A2780; experiment: Cytotoxicity against human A2780 cells incubated for 5 days by MTT assay; assay type: functional, cell-based; conditions: time 5.0 day
[12] = system: OCI-Ly3; experiment: Cytotoxicity against human OCILY3 cells incubated for 5 days by MTT assay; assay type: functional, cell-based; conditions: time 5.0 day
[13] = molecular target: T3, Cereblon/Ikaros (Homo sapiens); experiment: Protac activity at CRBN/IKZF1 (unknown origin) transfected in HEK293T cells at 100 nM incubated for 24 hrs by flow cytometry analysis relative to control; assay type: cell-based
[14] = molecular target: T4, Protein cereblon/Eukaryotic peptide chain release factor GTP-binding subunit ERF3A (Homo sapiens) (UniProt Q96SW2+P15170); experiment: Protac activity at CRBN/GSPT1 (unknown origin) transfected in HEK293T cells at 100 nM incubated for 24 hrs by flow cytometry analysis relative to control; assay type: cell-based
[15] = molecular target: T3, Cereblon/Ikaros (Homo sapiens); experiment: Protac activity at CRBN/IKZF1 (unknown origin) transfected in HEK293T cells at 1 uM incubated for 24 hrs by flow cytometry analysis relative to control; assay type: cell-based
[16] = molecular target: T1, Protein cereblon/Zinc finger protein Helios (Homo sapiens); experiment: Protac activity at CRBN/IKZF2 (unknown origin) transfected in HEK293T cells at 1 uM incubated for 24 hrs by flow cytometry analysis relative to control; assay type: cell-based
[17] = molecular target: T2, Cereblon/Casein kinase I alpha (Homo sapiens); experiment: Protac activity at CRBN/CK1alpha (unknown origin) transfected in HEK293T cells at 1 uM incubated for 24 hrs by flow cytometry analysis relative to control; assay type: cell-based
[18] = molecular target: T4, Protein cereblon/Eukaryotic peptide chain release factor GTP-binding subunit ERF3A (Homo sapiens); experiment: Protac activity at CRBN/GSPT1 (unknown origin) transfected in HEK293T cells at 1 uM incubated for 24 hrs by flow cytometry analysis relative to control; assay type: cell-based
[19] = molecular target: T4, Protein cereblon/Eukaryotic peptide chain release factor GTP-binding subunit ERF3A (Homo sapiens); experiment: Protac activity at CRBN/GSPT1 in human NCI-H1048 cells at 10 to 100 nM incubated for 24 hrs by Western blotting analysis; assay type: cell-based; conditions: dose 10-100 nM

T2 sequence (P48729 2-337 limits assumed): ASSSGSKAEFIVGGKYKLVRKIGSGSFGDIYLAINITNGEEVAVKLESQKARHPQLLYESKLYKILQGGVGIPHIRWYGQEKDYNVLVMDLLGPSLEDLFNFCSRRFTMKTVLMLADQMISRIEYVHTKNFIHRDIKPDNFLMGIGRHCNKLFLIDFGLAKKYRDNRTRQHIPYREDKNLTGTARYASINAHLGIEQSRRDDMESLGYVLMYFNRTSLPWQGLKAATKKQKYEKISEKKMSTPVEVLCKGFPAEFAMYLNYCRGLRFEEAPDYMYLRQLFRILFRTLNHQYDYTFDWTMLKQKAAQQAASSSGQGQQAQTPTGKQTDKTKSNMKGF
T2 sequence (Q96SW2 whole entry partner): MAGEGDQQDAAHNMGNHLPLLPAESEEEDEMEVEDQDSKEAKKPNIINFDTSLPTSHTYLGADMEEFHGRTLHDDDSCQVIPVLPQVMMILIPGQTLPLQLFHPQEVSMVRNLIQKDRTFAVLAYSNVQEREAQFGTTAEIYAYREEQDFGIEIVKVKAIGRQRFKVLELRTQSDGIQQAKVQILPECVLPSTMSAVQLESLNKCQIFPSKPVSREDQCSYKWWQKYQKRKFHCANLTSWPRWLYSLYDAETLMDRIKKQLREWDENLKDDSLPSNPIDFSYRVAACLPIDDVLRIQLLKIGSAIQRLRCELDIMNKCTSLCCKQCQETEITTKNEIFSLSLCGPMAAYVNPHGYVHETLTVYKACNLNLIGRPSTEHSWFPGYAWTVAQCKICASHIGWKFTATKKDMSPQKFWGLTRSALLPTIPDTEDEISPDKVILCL
T1 sequence (Q96SW2 whole entry, looked up): as the sequence (Q96SW2 whole entry partner) above
T1 sequence (Q9UKS7 whole entry, looked up): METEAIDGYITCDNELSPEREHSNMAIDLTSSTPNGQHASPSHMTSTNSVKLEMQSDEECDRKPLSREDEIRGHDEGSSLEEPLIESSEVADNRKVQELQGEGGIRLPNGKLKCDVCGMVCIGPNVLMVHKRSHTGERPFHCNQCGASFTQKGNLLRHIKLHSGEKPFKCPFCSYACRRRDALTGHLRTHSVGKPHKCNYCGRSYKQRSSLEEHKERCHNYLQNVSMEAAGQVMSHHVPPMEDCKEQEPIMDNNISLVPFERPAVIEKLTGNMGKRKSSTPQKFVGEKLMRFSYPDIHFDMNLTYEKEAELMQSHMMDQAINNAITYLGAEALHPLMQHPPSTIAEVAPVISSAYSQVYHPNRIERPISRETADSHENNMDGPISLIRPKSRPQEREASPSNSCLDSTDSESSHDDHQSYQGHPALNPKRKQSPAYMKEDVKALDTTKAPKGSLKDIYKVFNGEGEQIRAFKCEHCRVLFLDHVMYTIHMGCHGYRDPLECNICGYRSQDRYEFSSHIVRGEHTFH
T4 sequence (P15170 whole entry, looked up): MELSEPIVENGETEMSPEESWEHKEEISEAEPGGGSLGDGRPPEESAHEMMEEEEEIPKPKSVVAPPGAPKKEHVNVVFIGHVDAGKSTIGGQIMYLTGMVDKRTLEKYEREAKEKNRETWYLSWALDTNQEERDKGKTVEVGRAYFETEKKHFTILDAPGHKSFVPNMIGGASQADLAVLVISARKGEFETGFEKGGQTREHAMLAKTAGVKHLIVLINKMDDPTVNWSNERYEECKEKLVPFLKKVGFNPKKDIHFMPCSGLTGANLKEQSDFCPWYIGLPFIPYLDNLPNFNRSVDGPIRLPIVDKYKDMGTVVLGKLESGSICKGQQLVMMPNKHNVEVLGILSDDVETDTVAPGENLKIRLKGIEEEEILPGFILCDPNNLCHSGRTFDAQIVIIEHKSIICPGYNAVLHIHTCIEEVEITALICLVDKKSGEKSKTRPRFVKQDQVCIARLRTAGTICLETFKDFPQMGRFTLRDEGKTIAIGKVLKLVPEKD
T4 sequence (Q96SW2 whole entry, looked up): as the sequence (Q96SW2 whole entry partner) above

Row | Activity [1] [%] | Activity [2] [%] | half-life [3] [h] | half-life [4] [h] | microsomal CLint [5] [µL/min/mg] | microsomal CLint [6] [µL/min/mg] | Structure (SMILES) | also measured
1 | 81 | 70 | > 4.25 | > 4.25 | < 5.4 | < 5.4 | CCCCOc1ccc2cc(C(=O)Nc3ccc4c(c3)CN(C3CCC(=O)NC3=O)C4=O)ccc2c1 (configuration not stated) | 
2 |  |  | > 4.25 | > 4.25 | < 5.4 | < 5.4 | O=C1CCC(N2Cc3cc(NC(=O)c4ccc5ccccc5c4)ccc3C2=O)C(=O)N1 (configuration not stated) | Activity [7]: Active; Activity [8]: inactive; Ratio [9]: 0.27; Ratio [10]: 0.5
3 | 81 | 70 | > 4.25 | > 4.25 | < 5.4 | < 5.4 | CC(C)Oc1ccc2cc(C(=O)Nc3ccc4c(c3)CN(C3CCC(=O)NC3=O)C4=O)ccc2c1 (configuration not stated) | 
4 |  |  |  |  |  |  | COc1cc(C(=O)O)ccc1NC(=O)[C@@H]1N[C@@H](CC(C)(C)C)[C@](C#N)(c2ccc(Cl)cc2F)[C@H]1c1cccc(Cl)c1F | Activity [11]: inactive; Activity [12]: inactive
5 | 68 | 61 | 3.48 | 0.04 | 6.6 | 584 | COc1ccc2cc(C(=O)Nc3ccc4c(c3)CN(C3CCC(=O)NC3=O)C4=O)ncc2c1 (configuration not stated) | 
6 |  |  | > 4.25 | 0.08 | < 5.4 | 290 | [2H]C([2H])([2H])Oc1ccc2cc(C(=O)Nc3ccc4c(c3)CN(C3CCC(=O)NC3=O)C4=O)ccc2c1 (configuration not stated) | 
7 | 73 | 62 | > 4.25 | 0.338 | < 5.4 | 68.4 | COc1ccc2cc(C(=O)Nc3ccc4c(c3)CN(C3CCC(=O)NC3=O)C4=O)cnc2c1 (configuration not stated) | 
8 | 80 | 71 | > 4.25 | > 4.25 | < 5.4 | < 5.4 | CCOc1ccc2cc(C(=O)Nc3ccc4c(c3)CN(C3CCC(=O)NC3=O)C4=O)ccc2c1 (configuration not stated) | 
9 | 89 | 68 | > 4.25 | 0.268 | < 5.4 | 108 | COc1ccc2cc(C(=O)Nc3ccc4c(c3)CN(C3CCC(=O)NC3=O)C4=O)ccc2n1 (configuration not stated) | 
10 | 87 | 69 | 0.398 | 0.265 | 57.9 | 87.4 | COc1ccc2nc(C(=O)Nc3ccc4c(c3)CN(C3CCC(=O)NC3=O)C4=O)ccc2c1 (configuration not stated) | 
11 |  |  | > 6 | > 6 |  |  | Nc1cccc2c1CN(C1CCC(=O)NC1=O)C2=O (configuration not stated) [LENALIDOMIDE] | 
12 | 90 | 70 | 3.13 |  | 7.4 | 362 | COc1ccc2cc(C(=O)Nc3ccc4c(c3)CN(C3CCC(=O)NC3=O)C4=O)ccc2c1 (configuration not stated) | Activity [13]: 7%; Activity ([1]; tested as the 2H-labelled form): 70%; Activity ([2]; tested as the 2H-labelled form): 52%; Activity [14]: 8%; Activity [15]: 9%; Activity [16]: 94%; Activity [17]: 70%; Activity [18]: 18%; Activity [19]: Active
